Assays:
[1] = Hydroxyl radical scavenging efficacy (Fenton system, DMPO spin trap, EPR)
Experimental: Hydroxyl radical scavenging efficacy of cilostazol was determined in air-saturated phosphate buffer (10 mM) at room temperature. The reaction was initiated by addition of a small aliquot (5 μL) of Fe^2+ solution (10 mM FeSO4 in 10 mM HCl) to a buffer containing cilostazol, H2O2 (0.12 mM) and 5,5-dimethyl-1-pyrroline-N-oxide (DMPO) (1 mM). The sample was transferred quickly to flat quartz electron paramagnetic resonance (EPR) cell, and measurements were started immediately.
The EPR spectra of the spin-adduct of DMPO with the hydroxyl radical: DMPO/.OH was observed when DMPO reacted with hydroxyl radical generated by the Fenton system. The EPR spectra (.OH) are shown in the accompanying FIG. 1. Scavenging of hydroxyl radicals was confirmed by using catalase (0.510 U/ml) (data not shown).

[2] = Peroxyl radical absorbing capacity (PRAC) assay; settings: 1 PRAC unit is the value of 1 μM of trolox, β-phycoerythrin fluorescence, 37° C.
Experimental: According to the method described by Cao et al. (Cao G, Alessio HM, Cutler RG (1993), Oxygen-radical absorbance capacity assay for antioxidants, Free Radic. Biol. Med 14: 303-311), the assay is based on production of peroxyl radicals by 2,2′-azobis(2-amidinopropane) hydrochloride (3 mM), a peroxyl radical generator, with subsequent oxidation of the reporter protein, β-phycoerythrin (16.7 nM) in 24 well plates. Into each sample well, either 20 μl of phosphate buffer or 20 μl of each concentration of cilostazol was included. After adding 2,2′-azobis(2-amidinopropane) hydrochloride, the reaction mixture was incubated at 37° C. Loss of fluorescence was measured every 5 minutes at the emission of 590 nm and excitation of 485 nm using Fluorescence Plate Reader (Bio-Tek Instruments, Inc., Winooski, USA). The PRAC value of the compound is reflected in the increase of area under curve of fluorescence versus time. Trolox was used as a reference for PRAC assay. The fluorescence just prior to addition of the 2,2′-azobis(2-amidinopropane) hydrochloride was estimated as the 100% value for that sample. The PRAC values were calculated by the following equation: [formula]
where 1 PRAC unit is the value of 1 μM of trolox.
The time-dependent decrease of β-phycoerythrin fluorescence in the absence (blank) and the presence of different concentrations of cilostazol is shown, in the accompanying FIG. 2. […]

O=C1CCc2cc(OCCCCc3nnnn3C3CCCCC3)ccc2N1 [cilostazol, 6-[4-(1-cyclohexyl-1H-tetrazol-5-yl)butoxy]-3,4-dihydrocarbostyril]
DMPO/.OH adduct EPR signals ([1]; 10^−5 M of cilostazol): almost ameliorated | IC50 ([1]; DMPO/.OH adduct formation, Fenton system, phosphate buffer 10 mM, room temperature, EPR, read-out: concentration required for inhibiting hydroxyl radical formation (IC50)): 2.58 ± 0.07 µM | PRAC value ([2]; 10^−4 M cilostazol): 1.938 unit | PRAC value ([2]; 10^−6 M cilostazol): 1.325 unit

— patent US6743806B2, “Active oxygen scavenger” (Otsuka Pharmaceutical Company, Limited, priority 2002, dated 2004)
